Reference: patent US20250195521A1 (Revolution Medicines, Inc., priority 2020, published 2025)

Key:
KRAS G13D = KRAS G13D (Homo sapiens (Human), UniProt P01116+P62937, G13D); experiment: Ras-Raf disruption/FRET/MOA assay (BRAF RBD, Cyclophilin A); type: biochemical; conditions: read-out: KRAS G13D FRET data IC50
Summary of the method: (§1)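 TR-FRET readout: anti-His Eu-W1024 (10 nM) and anti-GST allophycocyanin (50 nM) added after 3 h, 25° C compound incubation, then 1.5 h more. Decrease in FRET ratio versus DMSO wells marks Ras:RAF disruption; IC50 reported.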

KRAS G12D = KRAS G12D (Homo sapiens (Human), UniProt P01116+P62937, G12D); experiment: as above; type: biochemical; conditions: read-out: KRAS G12D FRET IC50
Summary of the method: as §1

KRAS G12V = KRAS G12V (Homo sapiens (Human), UniProt P01116+P62937, G12V); experiment: as above; type: biochemical; conditions: read-out: KRAS G12V FRET IC50
Summary of the method: as §1

KRAS G13C = KRAS G13C (Homo sapiens (Human), UniProt P01116+P62937, G13C); experiment: as above; type: biochemical; conditions: read-out: KRAS G13C FRET IC50
Summary of the method: as §1

NRAS G12C = NRAS G12C (Homo sapiens (Human), UniProt P01111+P62937, G12C); experiment: as above; type: biochemical; conditions: read-out: NRAS G12C FRET data IC50
Summary of the method: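 First, 25 μM Cyclophilin A, 12.5 nM His6-Ras-GMPPNP and 50 nM GST-BRAF RBD are mixed with diluted compound at pH 7.3. Next, 3 h at 25° C. Then 10 nM anti-His Eu-W1024 plus 50 nM anti-GST allophycocyanin for 1.5 h before TR-FRET reading.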

KRAS WT = KRAS WT (Homo sapiens (Human), UniProt P01116+P62937); experiment: as above; type: biochemical; conditions: read-out: KRAS WT FRET data IC50
Summary of the method: as §1

KRAS G12S = KRAS G12S (Homo sapiens (Human), UniProt P01116+P62937, G12S); experiment: as above; type: biochemical; conditions: read-out: KRAS G12S FRET IC50
Summary of the method: as §1

KRAS G12C = KRAS G12C (Homo sapiens (Human), UniProt P01116+P62937, G12C); experiment: as above; type: biochemical; conditions: read-out: KRAS G12C FRET IC50
Summary of the method: as §1

[1] = tested on: K-Ras G12C (NCI-H358 cells); experiment: Potency assay: pERK in NCI-H358 cells; type: cell-based, human; conditions: Homo sapiens; NCI-H358 cells, 4 hours; read-out: pERK EC50 (H358 KRAS G12C)
Summary of the method: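 Cells plated the day before were exposed for 4 h at 37° C, 5% CO2 to a 10-point, 3-fold DMSO dilution series (10 mM top stock), in duplicate. Phospho-ERK was read by AlphaLISA SureFire Ultra or by In-Cell Western with DRAQ5 DNA stain, and IC50 came from a 4-parameter sigmoidal fit.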

NCI-H358 (K-Ras G12C) = experiment: CellTiter-Glo cell viability assay, NCI-H358; type: cell-based, human; conditions: Homo sapiens, NCI-H358, 120 h, 5-day treatment; read-out: H358 Cell Viability assay data (K-Ras G12C, IC50)
Summary of the method: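 Cells seeded, compound added directly to plates; day 5: plates to RT ~30 min, CellTiter-Glo luminescence; (sample/avg DMSO)*100; 4-parameter fit.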

[2] = tested on: NCI-H358 cells (K-Ras G12C); experiment: CellTiter-Glo cell viability, NCI-H358; type: cell-based, human; conditions: Homo sapiens, NCI-H358, 120 h, K-Ras G12C, 5-day treatment; read-out: H358 Cell Viability IC50
Summary of the method: (§2)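 Cells seeded, compound dispensed straight into wells, 5-day exposure. Plates brought to room temperature ~30 min, CellTiter-Glo luminescence measured. Normalized to DMSO (%), 4-parameter logistic fit.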

[3] = tested on: Capan-1 cells (K-Ras G12V); experiment: CellTiter-Glo cell viability, Capan-1; type: cell-based, human; conditions: Homo sapiens, CAPAN-1, 120 h, K-Ras G12V, 5-day treatment; read-out: Capan-1 Cell Viability IC50
Summary of the method: as §2

Chain of KRAS G12C (P01116-2 other isoform, or with tags, fused parts or gaps G12C): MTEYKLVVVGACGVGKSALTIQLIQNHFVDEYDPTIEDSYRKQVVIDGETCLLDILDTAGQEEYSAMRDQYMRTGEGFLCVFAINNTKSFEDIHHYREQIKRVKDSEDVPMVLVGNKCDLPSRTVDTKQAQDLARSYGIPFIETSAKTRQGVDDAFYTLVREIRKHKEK
Chain of KRAS G12C (P62937 whole entry): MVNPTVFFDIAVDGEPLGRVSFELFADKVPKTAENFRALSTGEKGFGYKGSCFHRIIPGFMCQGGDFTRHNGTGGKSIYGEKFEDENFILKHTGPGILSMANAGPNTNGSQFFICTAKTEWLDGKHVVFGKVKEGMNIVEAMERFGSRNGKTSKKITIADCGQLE
Chain of KRAS G12S (P01116 other isoform, or with tags, fused parts or gaps G12S): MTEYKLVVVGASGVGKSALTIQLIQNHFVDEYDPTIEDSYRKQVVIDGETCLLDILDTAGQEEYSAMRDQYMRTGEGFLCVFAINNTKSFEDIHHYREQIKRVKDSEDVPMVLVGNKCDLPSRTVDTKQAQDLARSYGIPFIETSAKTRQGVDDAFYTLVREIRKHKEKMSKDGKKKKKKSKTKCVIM
Chain of KRAS G12S (P62937 whole entry): as the sequence (P62937 whole entry) above
Chain of KRAS G13D (P01116 other isoform, or with tags, fused parts or gaps G13D): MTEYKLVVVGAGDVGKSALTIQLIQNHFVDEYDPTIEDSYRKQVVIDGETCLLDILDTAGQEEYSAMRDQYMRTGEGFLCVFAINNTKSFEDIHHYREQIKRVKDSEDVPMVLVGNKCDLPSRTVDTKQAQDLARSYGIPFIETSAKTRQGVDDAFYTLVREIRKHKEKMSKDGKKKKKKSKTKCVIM
Chain of KRAS G13D (P62937 whole entry): as the sequence (P62937 whole entry) above
Chain of KRAS G12D (P01116 other isoform, or with tags, fused parts or gaps G12D): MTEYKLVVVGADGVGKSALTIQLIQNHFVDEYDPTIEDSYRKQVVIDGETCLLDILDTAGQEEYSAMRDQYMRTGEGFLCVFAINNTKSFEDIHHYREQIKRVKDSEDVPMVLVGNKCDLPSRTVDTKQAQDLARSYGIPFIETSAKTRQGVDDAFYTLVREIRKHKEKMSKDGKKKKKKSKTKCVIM
Chain of KRAS G12D (P62937 whole entry): as the sequence (P62937 whole entry) above
Chain of KRAS G13C (P01116 other isoform, or with tags, fused parts or gaps G13C): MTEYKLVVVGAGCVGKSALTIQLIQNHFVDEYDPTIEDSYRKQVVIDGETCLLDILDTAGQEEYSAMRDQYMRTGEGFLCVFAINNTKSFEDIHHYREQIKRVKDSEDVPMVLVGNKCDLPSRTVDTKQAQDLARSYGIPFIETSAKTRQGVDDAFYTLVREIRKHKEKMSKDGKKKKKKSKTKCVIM
Chain of KRAS G13C (P62937 whole entry): as the sequence (P62937 whole entry) above
Chain of KRAS WT (P01116 other isoform, or with tags, fused parts or gaps): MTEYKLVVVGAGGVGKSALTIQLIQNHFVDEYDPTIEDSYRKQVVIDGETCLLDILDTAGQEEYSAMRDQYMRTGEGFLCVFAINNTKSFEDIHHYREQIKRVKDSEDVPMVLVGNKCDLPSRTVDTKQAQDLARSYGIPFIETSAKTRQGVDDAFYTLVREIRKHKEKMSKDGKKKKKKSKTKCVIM
Chain of KRAS WT (P62937 whole entry): as the sequence (P62937 whole entry) above
Chain of KRAS G12V (P01116 other isoform, or with tags, fused parts or gaps G12V): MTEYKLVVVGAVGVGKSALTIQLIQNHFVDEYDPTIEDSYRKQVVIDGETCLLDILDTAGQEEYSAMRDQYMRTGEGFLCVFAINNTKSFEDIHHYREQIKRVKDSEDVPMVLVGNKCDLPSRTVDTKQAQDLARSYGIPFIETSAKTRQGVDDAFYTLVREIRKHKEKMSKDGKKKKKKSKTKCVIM
Chain of KRAS G12V (P62937 whole entry): as the sequence (P62937 whole entry) above
Chain of NRAS G12C (P01111 whole entry G12C): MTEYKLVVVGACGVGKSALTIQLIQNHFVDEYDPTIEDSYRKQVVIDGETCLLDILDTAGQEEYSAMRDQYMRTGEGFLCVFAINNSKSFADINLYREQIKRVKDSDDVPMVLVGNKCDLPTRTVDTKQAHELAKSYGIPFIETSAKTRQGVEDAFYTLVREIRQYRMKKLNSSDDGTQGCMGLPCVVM
Chain of NRAS G12C (P62937 whole entry): as the sequence (P62937 whole entry) above

SMILES	IC50 (KRAS G13D)	IC50 (KRAS G12D)	IC50 (KRAS G12V)	IC50 (KRAS G13C)	IC50 (NRAS G12C)	IC50 (KRAS WT)	IC50 (KRAS G12S)	IC50 (KRAS G12C)	EC50 [1]	IC50 (NCI-H358 (K-Ras G12C))	IC50 [2]	IC50 [3]
CCn1c(-c2cnccc2COC)c2c3cc(ccc31)-c1cc(O)cc(c1)C[C@H](NC(=O)[C@H](C(C)C)N(C)C(=O)[C@H]1CCN(C(=O)CO)C1)C(=O)N1CCC[C@H](N1)C(=O)OCC(C)(C)C2 [Compound A20]	100 to 1000 nM	1000 to 10000 nM	100 to 1000 nM	100 to 1000 nM	100 to 1000 nM	100 to 1000 nM	100 to 1000 nM	10 to 100 nM	< 5000 nM	10 to 100 nM	1000 to 10000 nM	–
CCn1c(-c2cnccc2COC)c2c3cc(ccc31)-c1cc(O)cc(c1)C[C@H](NC(=O)[C@H](C(C)C)N(C)C(=O)[C@H]1CCN(C[C@@H](C)O)C1)C(=O)N1CCC[C@H](N1)C(=O)OCC(C)(C)C2 [Compound A31]	100 to 1000 nM	100 to 1000 nM	1000 to 10000 nM	10 to 100 nM	100 to 1000 nM	100 to 1000 nM	100 to 1000 nM	100 to 1000 nM	< 5000 nM	10 to 100 nM	> 10000 nM	–
CCn1c(-c2cnccc2COC)c2c3cc(ccc31)-c1cc(O)cc(c1)C[C@H](NC(=O)[C@H](C(C)C)N(C)C(=O)[C@H]1CCN(C3CCOCC3)C1)C(=O)N1CCC[C@H](N1)C(=O)OCC(C)(C)C2 [Compound A45]	10 to 100 nM	100 to 1000 nM	> 10000 nM	100 to 1000 nM	1000 to 10000 nM	100 to 1000 nM	100 to 1000 nM	100 to 1000 nM	< 5000 nM	10 to 100 nM	1000 to 10000 nM	–
CCn1c(-c2cnccc2COC)c2c3cc(ccc31)-c1cc(O)cc(c1)C[C@H](NC(=O)[C@H](C(C)C)N(C)C(=O)[C@H]1CCN(C[C@H](C)O)C1)C(=O)N1CCC[C@H](N1)C(=O)OCC(C)(C)C2 [Compound A47]	100 to 1000 nM	1000 to 10000 nM	> 10000 nM	100 to 1000 nM	100 to 1000 nM	100 to 1000 nM	100 to 1000 nM	100 to 1000 nM	< 5000 nM	10 to 100 nM	> 10000 nM	–
CCn1c(-c2cnccc2COC)c2c3cc(ccc31)-c1cc(O)cc(c1)C[C@H](NC(=O)[C@@H](NC(C)=O)C(C)C)C(=O)N1CCC[C@H](N1)C(=O)OCC(C)(C)C2 [Compound A58]	1000 to 10000 nM	> 10000 nM	1000 to 10000 nM	1000 to 10000 nM	1000 to 10000 nM	1000 to 10000 nM	1000 to 10000 nM	1000 to 10000 nM	< 5000 nM	10 to 100 nM	1000 to 10000 nM	–
CCn1c(-c2cnccc2COC)c2c3cc(ccc31)-c1cc(O)cc(c1)C[C@H](NC(=O)[C@H](C(C)C)N(C)C(=O)c1ncc[nH]1)C(=O)N1CCC[C@H](N1)C(=O)OCC(C)(C)C2 [Compound A64]	100 to 1000 nM	1000 to 10000 nM	100 to 1000 nM	1000 to 10000 nM	100 to 1000 nM	100 to 1000 nM	100 to 1000 nM	100 to 1000 nM	< 5000 nM	10 to 100 nM	100 to 1000 nM	–
CCn1c(-c2cnccc2COC)c2c3cc(ccc31)-c1cc(O)cc(c1)C[C@H](NC(=O)[C@H](C(C)C)N(C)C(=O)CNC(=N)N)C(=O)N1CCC[C@H](N1)C(=O)OCC(C)(C)C2 [Compound A68]	100 to 1000 nM	100 to 1000 nM	100 to 1000 nM	10 to 100 nM	100 to 1000 nM	100 to 1000 nM	10 to 100 nM	10 to 100 nM	–	100 to 1000 nM	> 10000 nM	–
CCn1c(-c2cnccc2COC)c2c3cc(ccc31)-c1cc(O)cc(c1)C[C@H](NC(=O)[C@H](C(C)C)N(C)C(=O)[C@@H](C)O)C(=O)N1CCC[C@H](N1)C(=O)OCC(C)(C)C2 [Compound A92]	1000 to 10000 nM	1000 to 10000 nM	1000 to 10000 nM	100 to 1000 nM	1000 to 10000 nM	1000 to 10000 nM	1000 to 10000 nM	1000 to 10000 nM	–	100 to 1000 nM	1000 to 10000 nM	> 10000 nM
CCn1c(-c2cccnc2[C@H](C)OC)c2c3cc(ccc31)-c1cc(O)cc(c1)C[C@H](NC(=O)[C@H](C(C)C)N(C)C(=O)C13CCC(CC1)O3)C(=O)N1CCC[C@H](N1)C(=O)OCC(C)(C)C2 [Compound A412]	100 to 1000 nM	100 to 1000 nM	100 to 1000 nM	100 to 1000 nM	100 to 1000 nM	10 to 100 nM	100 to 1000 nM	10 to 100 nM	< 5000 nM	–	100 to 1000 nM	100 to 1000 nM
CCn1c(-c2cccnc2[C@H](C)OC)c2c3cc(ccc31)-c1cc(O)cc(c1)C[C@H](NC(=O)[C@H](C(C)C)N(C)C(=O)C1CC3(CCOCC3)CO1)C(=O)N1CCC[C@H](N1)C(=O)OCC(C)(C)C2 (stereo partly drawn) [Compound A413]	100 to 1000 nM	100 to 1000 nM	100 to 1000 nM	10 to 100 nM	10 to 100 nM	10 to 100 nM	100 to 1000 nM	10 to 100 nM	< 5000 nM	–	100 to 1000 nM	100 to 1000 nM
CCn1c(-c2cccnc2[C@H](C)OC)c2c3cc(ccc31)-c1cc(O)cc(c1)C[C@H](NC(=O)[C@H](C(C)C)N(C)C(=O)[C@H]1CC[C@@H](C(N)=O)O1)C(=O)N1CCC[C@H](N1)C(=O)OCC(C)(C)C2 [Compound A414]	100 to 1000 nM	100 to 1000 nM	100 to 1000 nM	10 to 100 nM	10 to 100 nM	100 to 1000 nM	10 to 100 nM	10 to 100 nM	< 5000 nM	–	100 to 1000 nM	1000 to 10000 nM
CCn1c(-c2cccnc2[C@H](C)OC)c2c3cc(ccc31)-c1cc(O)cc(c1)C[C@H](NC(=O)[C@H](C(C)C)N(C)C(=O)C1(C(F)F)CCCO1)C(=O)N1CCC[C@H](N1)C(=O)OCC(C)(C)C2 (stereo partly drawn) [Compound A416]	100 to 1000 nM	100 to 1000 nM	100 to 1000 nM	100 to 1000 nM	100 to 1000 nM	100 to 1000 nM	100 to 1000 nM	100 to 1000 nM	< 5000 nM	–	100 to 1000 nM	100 to 1000 nM
CCn1c(-c2cccnc2[C@H](C)OC)c2c3cc(ccc31)-c1cc(O)cc(c1)C[C@H](NC(=O)[C@H](C(C)C)N(C)C(=O)[C@@H]1COC[C@@H]1N)C(=O)N1CCC[C@H](N1)C(=O)OCC(C)(C)C2 [Compound A418]	100 to 1000 nM	100 to 1000 nM	100 to 1000 nM	10 to 100 nM	10 to 100 nM	10 to 100 nM	10 to 100 nM	10 to 100 nM	< 5000 nM	–	100 to 1000 nM	1000 to 10000 nM
CCn1c(-c2cccnc2[C@H](C)OC)c2c3cc(ccc31)-c1cc(O)cc(c1)C[C@H](NC(=O)[C@H](C(C)C)N(C)C(=O)[C@H]1[C@@H](N)[C@@H]3CC[C@H]1O3)C(=O)N1CCC[C@H](N1)C(=O)OCC(C)(C)C2 [Compound A421]	100 to 1000 nM	100 to 1000 nM	1000 to 10000 nM	10 to 100 nM	100 to 1000 nM	100 to 1000 nM	100 to 1000 nM	100 to 1000 nM	< 5000 nM	–	100 to 1000 nM	1000 to 10000 nM
